ChEMBL document CHEMBL1201862, “PubChem BioAssay data set” (2004)
Calls of active or inactive are those of the source.

Legend:
[1] = target: Transthyretin (Homo sapiens, UniProt P02766); assay: Luminescence-based cell-based high throughput dose response assay to identify activators of Transthyretin (TTR) transcription.; assay type: functional
[2] = target: Kallikrein-7 (Homo sapiens, UniProt P49862); assay: Fluorescence Intensity-based biochemical primary high throughput dose response assay to identify activators of kallikrein-7 (K7) zymogen.
[3] = Luminescence-based cell-based high throughput dose response assay to identify activators of the DAF-12 from the parasite S. stercoralis (ssDAF-12).; assay type: functional
[4] = target: T1, Oxysterols receptor LXR-beta (Homo sapiens, UniProt P55055); assay: LXR agonists, Gal4 luciferase reporter, dose response, counter-screen for ssDAF-12 agonist project, cell-based, luminescence, HEK293, S. stercoralis campaign (AID 720737); assay type: functional; conditions: read-out: IC50 (the source's name)
T1 sequence (P55055 whole entry): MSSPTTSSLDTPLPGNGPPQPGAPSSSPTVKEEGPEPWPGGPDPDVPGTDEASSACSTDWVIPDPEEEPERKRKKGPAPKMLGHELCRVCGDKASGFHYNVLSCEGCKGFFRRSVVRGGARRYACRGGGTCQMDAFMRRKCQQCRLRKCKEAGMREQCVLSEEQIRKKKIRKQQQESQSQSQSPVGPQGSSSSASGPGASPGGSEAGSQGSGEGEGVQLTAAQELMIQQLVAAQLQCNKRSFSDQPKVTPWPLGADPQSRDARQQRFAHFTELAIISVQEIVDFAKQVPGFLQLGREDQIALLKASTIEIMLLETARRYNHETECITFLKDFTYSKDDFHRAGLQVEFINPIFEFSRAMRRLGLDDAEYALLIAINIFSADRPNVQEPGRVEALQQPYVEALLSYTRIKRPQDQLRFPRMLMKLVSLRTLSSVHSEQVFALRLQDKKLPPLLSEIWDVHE

[5] = target: 1-phosphatidylinositol 4,5-bisphosphate phosphodiesterase beta-3 (Homo sapiens, UniProt Q01970); assay: Fluorescence-based biochemical high throughput dose response assay to identify inhibitors of phospholipase C isozymes (PLC-B3).
[6] = target: 1-phosphatidylinositol 4,5-bisphosphate phosphodiesterase gamma-1 (Homo sapiens, UniProt P19174); assay: Counterscreen for inhibitors of phospholipase C isozymes (PLC-B3): Fluorescence-based biochemical high throughput dose response assay to identify inhibitors of phospholipase C isozymes (PLC-gamma1).
Sequence of 1-phosphatidylinositol 4,5-bisphosphate phosphodiesterase gamma-1 (P19174 whole entry): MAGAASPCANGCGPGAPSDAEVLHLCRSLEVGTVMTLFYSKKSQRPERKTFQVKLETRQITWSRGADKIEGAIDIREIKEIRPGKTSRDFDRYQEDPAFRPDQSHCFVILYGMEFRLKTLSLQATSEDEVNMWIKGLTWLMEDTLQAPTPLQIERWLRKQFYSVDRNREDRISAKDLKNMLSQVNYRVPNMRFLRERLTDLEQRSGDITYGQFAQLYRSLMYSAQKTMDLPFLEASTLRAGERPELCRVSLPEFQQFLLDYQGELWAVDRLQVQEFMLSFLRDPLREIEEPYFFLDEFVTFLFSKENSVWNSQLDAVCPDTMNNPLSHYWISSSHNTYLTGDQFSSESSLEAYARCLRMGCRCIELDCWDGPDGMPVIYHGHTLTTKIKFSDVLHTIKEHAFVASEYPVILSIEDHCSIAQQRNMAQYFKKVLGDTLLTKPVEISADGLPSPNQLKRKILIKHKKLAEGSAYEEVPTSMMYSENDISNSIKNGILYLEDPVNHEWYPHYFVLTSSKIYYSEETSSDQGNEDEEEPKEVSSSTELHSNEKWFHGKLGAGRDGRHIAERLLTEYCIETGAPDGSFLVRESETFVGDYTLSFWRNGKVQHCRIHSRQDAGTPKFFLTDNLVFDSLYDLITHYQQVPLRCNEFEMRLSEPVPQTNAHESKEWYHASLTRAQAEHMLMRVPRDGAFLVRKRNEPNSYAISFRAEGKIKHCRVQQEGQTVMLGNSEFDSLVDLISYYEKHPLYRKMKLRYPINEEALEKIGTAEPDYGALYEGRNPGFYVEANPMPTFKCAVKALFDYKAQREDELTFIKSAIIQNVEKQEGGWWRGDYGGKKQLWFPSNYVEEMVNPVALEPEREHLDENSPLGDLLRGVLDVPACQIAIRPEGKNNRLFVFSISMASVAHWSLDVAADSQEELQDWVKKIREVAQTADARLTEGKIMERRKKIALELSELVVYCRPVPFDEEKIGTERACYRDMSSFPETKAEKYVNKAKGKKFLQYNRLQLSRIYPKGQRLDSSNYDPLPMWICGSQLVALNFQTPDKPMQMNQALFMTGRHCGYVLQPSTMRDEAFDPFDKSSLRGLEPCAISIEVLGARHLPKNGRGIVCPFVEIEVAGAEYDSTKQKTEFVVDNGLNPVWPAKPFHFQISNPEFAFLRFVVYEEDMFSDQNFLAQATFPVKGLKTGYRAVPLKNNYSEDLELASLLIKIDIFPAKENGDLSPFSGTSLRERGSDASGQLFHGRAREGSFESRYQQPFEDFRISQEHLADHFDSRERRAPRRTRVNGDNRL

Sequence of Kallikrein-7 (P49862 whole entry): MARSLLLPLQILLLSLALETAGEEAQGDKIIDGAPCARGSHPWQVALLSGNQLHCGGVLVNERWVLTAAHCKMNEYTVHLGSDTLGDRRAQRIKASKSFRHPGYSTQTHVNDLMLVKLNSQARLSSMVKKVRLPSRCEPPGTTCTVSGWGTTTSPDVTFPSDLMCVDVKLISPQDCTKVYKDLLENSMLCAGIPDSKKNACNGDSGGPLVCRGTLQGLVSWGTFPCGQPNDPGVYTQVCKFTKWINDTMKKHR
Sequence of 1-phosphatidylinositol 4,5-bisphosphate phosphodiesterase beta-3 (Q01970 whole entry): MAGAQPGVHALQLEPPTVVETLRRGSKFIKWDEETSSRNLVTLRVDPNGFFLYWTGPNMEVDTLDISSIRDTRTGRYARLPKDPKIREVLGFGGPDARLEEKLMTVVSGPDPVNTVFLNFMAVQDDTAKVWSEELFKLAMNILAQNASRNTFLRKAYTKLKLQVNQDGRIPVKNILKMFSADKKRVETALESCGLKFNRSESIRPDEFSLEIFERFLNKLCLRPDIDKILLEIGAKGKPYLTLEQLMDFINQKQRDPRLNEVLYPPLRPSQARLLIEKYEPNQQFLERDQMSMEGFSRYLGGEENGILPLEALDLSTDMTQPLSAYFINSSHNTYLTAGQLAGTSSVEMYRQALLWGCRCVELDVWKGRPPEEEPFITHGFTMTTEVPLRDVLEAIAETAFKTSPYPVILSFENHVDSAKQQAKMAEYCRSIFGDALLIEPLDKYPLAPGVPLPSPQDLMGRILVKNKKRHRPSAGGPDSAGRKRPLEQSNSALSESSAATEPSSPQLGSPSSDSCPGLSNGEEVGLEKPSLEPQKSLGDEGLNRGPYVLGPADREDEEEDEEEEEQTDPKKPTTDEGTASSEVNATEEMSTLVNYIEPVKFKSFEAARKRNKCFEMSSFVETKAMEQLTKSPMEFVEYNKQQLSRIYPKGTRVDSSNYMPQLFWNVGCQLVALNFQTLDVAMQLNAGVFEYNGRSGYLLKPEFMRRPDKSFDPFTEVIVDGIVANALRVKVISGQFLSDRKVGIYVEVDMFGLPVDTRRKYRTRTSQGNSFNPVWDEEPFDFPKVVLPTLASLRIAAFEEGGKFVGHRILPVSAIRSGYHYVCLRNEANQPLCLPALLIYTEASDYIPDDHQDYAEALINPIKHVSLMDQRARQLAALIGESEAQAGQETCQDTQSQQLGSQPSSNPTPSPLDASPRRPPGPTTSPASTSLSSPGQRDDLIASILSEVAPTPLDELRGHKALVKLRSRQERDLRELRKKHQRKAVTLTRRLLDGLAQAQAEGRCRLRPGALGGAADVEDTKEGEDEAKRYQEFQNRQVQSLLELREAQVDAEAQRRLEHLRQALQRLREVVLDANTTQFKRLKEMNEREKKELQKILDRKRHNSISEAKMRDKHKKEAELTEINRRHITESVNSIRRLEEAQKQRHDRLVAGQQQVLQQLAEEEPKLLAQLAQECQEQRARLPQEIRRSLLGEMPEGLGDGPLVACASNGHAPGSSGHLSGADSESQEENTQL

EC50 [1]	Compound	IC50 [3]	EC50 [4]	further results
> 167 µM (inactive)	CC(C)CNC(=O)CSc1nnc2ccccn12	–	–	–
–	COc1ccc(C2Nc3ccccc3C(=O)N2NS(C)(=O)=O)cc1OC (centres undefined)	–	–	EC50 [2]: 38.8 µM (inactive)
> 167 µM (inactive)	Cc1cccc(NC(c2ccc(O)cc2)c2ccc3ccc(C)nc3c2O)n1 (centres undefined)	–	–	–
–	Cc1ccc2nsnc2c1NC(=O)c1cccnc1Cl	> 67.5 µM (inactive)	> 67.5 µM (inactive)	–
–	O=C(O)C(=O)/C(=C\c1ccccc1)c1ccc2ccccc2n1	> 67.5 µM (inactive)	> 67.5 µM (inactive)	–
–	O=Cc1cc(N=Nc2ccc(S(=O)(=O)O)cc2)ccc1O	–	–	IC50 [5]: > 122 µM (inactive); IC50 [6]: 39.3 µM (inactive)
